Results: patent US20250250265A1, “BENZOTHIAZOLE-PHENYLSULFONYL-PIPERIDINE ANALOGS AS ACTIVATORS OF NACYLPHOSPHATIDYLETHANOLAMINE HYDROLYZING PHOSPHOLIPASE D” (priority 2022, published 2025)

Columns and labels:
[1] = molecular target: T1, recombinant human NAPE-PLD (Homo sapiens, UniProt Q6IQ20); assay: Concentration response with recombinant human NAPE-PLD, PED-A1 as substrate; type: biochemical; settings: for effect on activity of recombinant human NAPE-PLD: graded concentrations (FIG. 18A)
T1 construct: The expression plasmid including the full-length human NAPEPLD gene with a C-terminal hexahistidine tag; hexahistidine (His6) (C)
Source text: FIG. 18A-B show VU534 and VU533 activate human NAPE-PLD. […] Mean±SEM, n=3. Non-linear regression with variable slope (four parameter) was used to calculate EC50 and Emax.
Initial stocks of potential NAPE-PLD modulator compounds were purchased from Life Chemicals and provided by the Vanderbilt HTS screening facility. Additional compounds were synthesized by the Vanderbilt Chemical Synthesis core. LEI-401, [^2H4]PEA and [^2H4]OEA were purchased from Cayman Chemicals. N-palmitoyl-PE, 1,2-dioleoyl-PE and 1,2-dihexanoyl-PE were purchased from Avanti Polar Lipids. PED-A1 was purchased from Invitrogen. Flame-NAPE was synthesized as previously described. See Zarrow et al., J. Lipid Res. 63(1): 100156 (2022). [^2H4]N-palmitoyl-PE was synthesized using [^2H4] palmitic acid (Cambridge Isotope Laboratories) and 1,2-dioleoyl-PE and N-oleoyl-PE was synthesized using 1,2-dihexanoyl-PE and oleoyl chloride (Millipore Sigma). Recombinant mouse NAPE-PLD with a C-terminal hexahistidine tag was expressed in E. coli and purified using cobalt affinity beads as previously described. See Aggarwal et al., J. Biol. Chem. 295(21): 7289-7300 (2020). The expression plasmid including the full-length human NAPEPLD gene with a C-terminal hexahistidine tag inserted in a pET plasmid was purchased from VectorBuilder, and the protein expressed and purified in an identical manner to recombinant mouse NAPE-PLD. The sEH inhibitors TPPU (N-[1-(1-Oxopropyl)-4-piperidinyl]-N′-[4-(trifluoromethoxy)phenyl]urea) and AUDA (12-[[(tricyclo[3.3.1.13,7]dec-1-ylamino)carbonyl]amino]-dodecanoic acid) were purchased from Cayman Chemical and Sigma Chemicals, respectively.
In vitro fluorescence NAPE-PLD activity assays using recombinant NAPE-PLD and either PED-A1 or flame-NAPE as fluorogenic substrate were performed as previously described except with small modifications as noted below. See Aggarwal et al., J. Biol. Chem. 295(21): 7289-7300 (2020); Zarrow et al., J. Lipid Res. 63(1): 100156 (2022).
Concentration response curve (CRC) experiments used the same assay conditions as the HTS assay, except that graded concentrations of each test compound were used, with total amount of vehicle (DMSO) kept constant. CRC experiments with purified recombinant mouse NAPE-PLD were performed on two separate days, with values from each day normalized to vehicle only controls on same plate, and then all normalized values from both days averaged together. CRC experiments with human NAPE-PLD represent value from only a single day, due to limited amounts of this recombinant enzyme.

[2] = molecular target: T2, recombinant mouse NAPE-PLD (Mus musculus, UniProt Q8BH82); assay: LC/MS NAPE-PLD assay with N-oleoyl-phosphatidylethanolamine (NOPE) as substrate; type: biochemical; settings: NOPE 90 min (FIG. 19A)
T2 construct: hexahistidine (His6) (C); made in house; host or cells: E. coli
T2 sequence (Q8BH82 1-396): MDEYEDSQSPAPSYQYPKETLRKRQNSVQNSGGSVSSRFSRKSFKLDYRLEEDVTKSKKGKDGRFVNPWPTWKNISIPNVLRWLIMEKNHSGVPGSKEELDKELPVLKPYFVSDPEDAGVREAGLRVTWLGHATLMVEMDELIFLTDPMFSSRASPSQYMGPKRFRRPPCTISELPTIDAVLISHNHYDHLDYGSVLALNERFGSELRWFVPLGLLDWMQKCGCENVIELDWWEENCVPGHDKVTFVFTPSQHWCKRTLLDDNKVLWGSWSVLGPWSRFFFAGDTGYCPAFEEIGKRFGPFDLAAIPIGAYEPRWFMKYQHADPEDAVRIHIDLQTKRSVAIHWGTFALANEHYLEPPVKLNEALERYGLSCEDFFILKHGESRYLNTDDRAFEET
Protocol: For LC/MS assays, N-oleoyl-PE was added as substrate after […] pre-incubation with compound VU534, VU533, VU233 or vehicle. 90 min after N-oleoyl-PE was added, the reaction was quenched by adding 3 volumes of ice-cold methanol containing [^2H4]OEA and [^2H4]N-palmitoyl-PE and then 6 volumes of ice-cold chloroform.33 The lower phase was dried under nitrogen gas and dissolved in 100 μL mobile phase A. High performance liquid chromatography was performed using a 2.1 mm C18 guard column (Phenomenex AJ0-8782), and a rapid gradient ramp. Mobile phase A was 5:1:4 (v/v/v) isopropanol: methanol: water, with 0.2% v/v formic acid, 0.66 mM ammonium formate and 3 μM phosphoric acid included as additives. Mobile phase B was 0.2% (v/v) formic acid in isopropanol. Initial column conditions were 5% mobile phase B, followed by gradient ramp to 95% B over 0.5 min, held at 95% B for 2 min, the returned to initial conditions (5% B) over 1 min. Flow rate throughout was 100 μL/min. Injection volume was 2 μL. The sample injector needle was washed before each injection using a strong wash of methanol, and a weak wash of 1:1:1:1 (v/v/v/V) isopropanol: methanol: acetonitrile: water, with 0.2% formic acid, 0.3 mM ammonium formate, and 0.37 mM phosphoric acid included as additives. Multiple reaction monitoring for the following ions were monitored: OEA [M+H]^+: m/z 326.3→m/z 62.1; [^2H4]OEA [M+H]^+: m/z 330.3→m/z 66.1; N-oleoyl-PE [M+NH4]^+: m/z 693.5→m/z 308.3 (quantifier), m/z 693.5→m/z 271.2 (qualifier); [^2H4]N-palmitoyl-PE [M+NH4]^+: m/z 1003.8→m/z 286.3 (quantifier), m/z 1003.8→m/z 603.5 (qualifier). […]
To confirm the results of the fluorescence-based assays, an orthogonal biochemical Nape-pld assay based on LC/MS was employed. Recombinant mouse NAPE-PLD was pre-treated with VU534, VU533, VU233 or vehicle for 30 min, then N-oleoyl-phosphatidylethanolamine (NOPE) was added for 90 min, and the resulting levels of OEA and NOPE was measured by LC/MS. […]

T1 sequence (Q6IQ20 whole entry): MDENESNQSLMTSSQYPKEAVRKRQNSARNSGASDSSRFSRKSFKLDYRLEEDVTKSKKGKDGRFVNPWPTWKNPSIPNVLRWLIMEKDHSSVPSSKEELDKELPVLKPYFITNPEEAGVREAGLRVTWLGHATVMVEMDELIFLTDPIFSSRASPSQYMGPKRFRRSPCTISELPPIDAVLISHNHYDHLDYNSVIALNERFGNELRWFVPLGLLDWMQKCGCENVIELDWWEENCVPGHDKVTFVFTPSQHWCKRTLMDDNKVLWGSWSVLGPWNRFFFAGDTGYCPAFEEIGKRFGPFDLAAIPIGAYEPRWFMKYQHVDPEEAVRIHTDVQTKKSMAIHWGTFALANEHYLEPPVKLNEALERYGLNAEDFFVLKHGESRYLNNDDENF

SMILES	EC50, recombinant human NAPE-PLD ([1]; FIG. 18A, PED-A1)	effect on activity of recombinant human NAPE-PLD [1]	effect on OEA/NOPE ratio [2]	Emax, recombinant human NAPE-PLD ([1]; FIG. 18A, PED-A1)
O=C(Nc1nc2ccccc2s1)C1CCN(S(=O)(=O)c2ccc(F)c(Cl)c2)CC1 [VU233]	not calculable	no significant effect	no significant effect	–
Cc1cc(C)c2sc(NC(=O)C3CCN(S(=O)(=O)c4ccc(F)cc4)CC3)nc2c1 [VU534, N-(5,7-Dimethylbenzo[d]thiazol-2-yl)-1-((4-fluorophenyl)sulfonyl)piperidine-4-carboxamide]	–	concentration-dependent increases	significantly increased the OEA/NOPE ratio	1.8 fold
Cc1ccc(C)c2sc(NC(=O)C3CCN(S(=O)(=O)c4ccc(F)cc4)CC3)nc12 [VU533]	–	concentration-dependent increases	significantly increased the OEA/NOPE ratio	1.9 fold
